Reference: patent US4652563A, “Vasodilators and β-adrenoceptor antagonists” (Smith Kline & French Laboratories Ltd., priority 1984, dated 1987)
Where a name gives a salt, the structure may show the parent alone. Read-outs that look alike come from different tables or passages of the source. Blank lines part the entries; values can stand above or below the molecule they belong to.

What was measured:
[1] = Anti-hypertensive activity: fall in blood pressure in anaesthetised rats, intravenous; assay type: in vivo, rat; settings: from dose response graph; for ED (40 mm Hg): Rattus norvegicus, iv, read-out: dose required to lower blood pressure by 40 mm Hg
Experimental: (§1) Compounds were dosed following dissolution in distilled water or in polyethylene glycol and dilution with 0.9% saline. The compounds were then administered intravenously. The blood pressure and heart rate were monitored directly, from a polythene cannula placed in the carotid artery. The doses required to lower blood pressure by 40 mm Hg, when administered intravenously, were obtained from a dose response graph.

[2] = Vasodilator activity: increase in blood flow in autoperfused anaesthetised rat hindquarters; assay type: in vivo; settings: for ED (50% increase): Rattus norvegicus, read-out: dose required to increase hindquarters blood flow by 50%
Source text: The doses required to increase hindquarters blood flow by 50% were obtained.

β1 -adrenoceptor = assay: Overall hypotension and β1-adrenoceptor antagonism from the above data; settings: in vivo
Experimental: as §1
(§2) The doses required to inhibit isoprenaline-induced tachycardia by 50% (ID50) were obtained after intravenous administration.
(§3) Furthermore they have minimal intrinsic sympathomimetic activity as shown by the absence of a tachycardia in spontaneously beating guinea pig right atria. The compound of Example 1 produced a maximal increase of approximately 10% of the maximal isoprenaline induced tachycardia in an anaesthetised ganglion blocked cat.

β1 -receptors [3] = biological target: T1, β1 -receptors (Felis catus, UniProt Q9TST6); assay: β-Adrenoceptor antagonist activity: inhibition of isoprenaline-induced tachycardia in ganglion blocked anaesthetised cats; assay type: in vivo, cat; settings: for ED50: cat, iv, read-out: ID50 (inhibition of isoprenaline-induced tachycardia by 50%); for ED50 / ID50 (inhibition of isoprenaline-induced tachycardia by 50%): ganglion blocked anaesthetised cats, intravenous
T1 construct: from tissue; host or cells: living anaesthetised cat (in vivo)
T1 sequence (Q9TST6 whole entry): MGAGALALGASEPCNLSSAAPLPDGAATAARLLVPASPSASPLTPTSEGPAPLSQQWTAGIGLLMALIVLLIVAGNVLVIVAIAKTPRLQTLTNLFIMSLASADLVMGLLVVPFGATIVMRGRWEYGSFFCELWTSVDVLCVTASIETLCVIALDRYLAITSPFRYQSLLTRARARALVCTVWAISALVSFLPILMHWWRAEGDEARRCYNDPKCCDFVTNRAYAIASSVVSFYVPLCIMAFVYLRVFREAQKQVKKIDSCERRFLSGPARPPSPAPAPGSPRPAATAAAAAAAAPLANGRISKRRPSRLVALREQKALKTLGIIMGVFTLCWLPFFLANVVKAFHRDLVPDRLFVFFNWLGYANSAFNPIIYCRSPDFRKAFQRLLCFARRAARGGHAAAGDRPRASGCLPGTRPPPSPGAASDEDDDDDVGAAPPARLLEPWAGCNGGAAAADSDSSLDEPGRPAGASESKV
Source text: as §2

[4] = Anti-hypertensive activity in conscious cats, oral; assay type: in vivo, cat; settings: 19 μmol Kg^-1 (Example 1 base), 16 μmol Kg^-1 (Example 4 methanesulphonate); for changes in heart rate: at least 2 hours
[5] = Hypotension and aortic blood flow in anaesthetised cats; assay type: in vivo, cat; settings: 4 μmol Kg^-1 (base) and 7 μmol Kg^-1 (hydrochloride)
β1 -receptors [6] = biological target: T1, β1 -receptors; assay: β-Adrenoceptor antagonist activity: inhibition of isoprenaline-induced tachycardia in ganglion blocked anaesthetised cats; assay type: in vivo, cat; settings: prizidilol at doses giving a similar effect
[7] = Intrinsic sympathomimetic activity (tachycardia) in anaesthetised ganglion blocked cat; assay type: in vivo
Source text: as §3

[8] = Blood pressure in conscious spontaneously hypertensive rats, intravenous and oral; assay type: in vivo, spontaneously hypertensive rat
[9] = tested on: isolated intact guinea pig trachea; assay: Bronchodilatation: spontaneous tone of isolated intact guinea pig trachea; settings: bath concentration 1 μg ml^-1
Experimental: The compound of Example 4 (as methanesulphonate) (at a bath concentration of 1 μg ml^-1) caused a 50% reduction in the spontaneous tone of an isolated intact guinea pig trachea, as assessed by the method of Coleman R. A. and Farmer J. B. (1971), J. Pharm.

[10] = Observation of toxic effects in conscious spontaneously hypertensive rats, oral; assay type: in vivo, spontaneously hypertensive rat; settings: doses up to a maximum of 102 μmol Kg^-1
[11] = administration intra-arterially
[12] = iv, administration intravenously

ED50 (β1 -receptors [3]): 1.6 µmol/kg
Compound: CC1CC(=O)NN=C1c1ccc(NC(=O)CCNC[C@H](O)COc2ccc(CCOCC3CC3)cc2)cc1 (single isomer, unassigned; (-)) [Example 11, (-)-6-[4-[3-[2-(-)-Hydroxy-3-[4-(2-(cyclopropylmethoxy)ethyl)phenoxy]propylamino]propionamido]phenyl]-5-methyl-4,5-dihydro-3(2H)-pyridazione[(-) (-)isomer]]
ED (40 mm Hg) [1]: 2.1 µmol/kg
ED (50% increase) [2, 11]: 1.1 µmol/kg
prolonged hypotension and β1-adrenoceptor antagonism over the same dose range (β1 -adrenoceptor): cause prolonged hypotension and β1 -adrenoceptor antagonism over the same dose range

Compound: CC1CC(=O)NN=C1c1ccc(NC(=O)CCNCC(O)COc2ccc(CCOCC3CC3)cc2)cc1 (centres unmarked) [Example 1 as hydrochloride, 6-[4-[3-[2-Hydroxy-3-[4-(2-(cyclopropylmethoxy)ethyl)phenoxy]propylamino]propionamido]phenyl]-5-methyl-4,5-dihydro-3(2H)-pyridazinone]
dose required to lower blood pressure by 40 mm Hg ([1]; listed as 1, as hydrochloride): 4.0 µmol/kg
dose required to increase hindquarters blood flow by 50% ([2]; administration intravenously, listed as 1, as hydrochloride): 4.0 µmol/kg
prolonged hypotension and β1-adrenoceptor antagonism over the same dose range (β1 -adrenoceptor): cause prolonged hypotension and β1 -adrenoceptor antagonism over the same dose range
ID50 (inhibition of isoprenaline-induced tachycardia by 50%) (β1 -receptors [3]; listed as 1, as hydrochloride): 4.3 µmol/kg

Compound: CC1CC(=O)NN=C1c1ccc(NC(=O)CCNCC(O)COc2ccc(CCOCC3CC3)cc2)cc1 (centres unmarked) [Example 1, 6-[4-[3-[2-Hydroxy-3-[4-(2-(cyclopropylmethoxy)ethyl)phenoxy]propylamino]propionamido]phenyl]-5-methyl-4,5-dihydro-3(2H)-pyridazinone]
dose required to lower blood pressure by 40 mm Hg ([1]; as base): 8.0 µmol/kg
period of blood pressure reduction with minimal heart rate change [4]: at least 2 hours
reductions in blood pressure [4]: reductions in blood pressure
changes in heart rate [4]: minimal changes in heart rate
dose required to increase hindquarters blood flow by 50% ([2]; administration intravenously, as base): 11.5 µmol/kg
changes in aortic blood flow [5]: minimal changes in aortic blood flow
hypotension [5]: significant dose-dependent hypotension
prolonged hypotension and β1-adrenoceptor antagonism over the same dose range (β1 -adrenoceptor): cause prolonged hypotension and β1 -adrenoceptor antagonism over the same dose range
ID50 (inhibition of isoprenaline-induced tachycardia by 50%) (β1 -receptors [3]; as base): 1.9 µmol/kg
selectivity for β1-receptors (β1 -receptors [3]; in vivo): evidence that this compound has selectivity for β1 -receptors
duration of inhibition of isoprenaline-induced tachycardia (β1 -receptors [6]): prolonged duration of inhibition
maximal increase, of the maximal isoprenaline induced tachycardia [7]: approximately 10%

ED50 (β1 -receptors [3]): 8.63 µmol/kg
Compound: CCCc1cc(CCOCC2CC2)ccc1OCC(O)CNCCC(=O)Nc1ccc(C2=NNC(=O)CC2C)cc1 (centres unmarked) [Example 2, 6-[4-[3-[2-Hydroxy-3-[2-n-propyl-4-(2-(cyclopropylmethoxy)ethyl)phenoxy]propylamino]propionamido]phenyl]-5-methyl-4,5-dihydro-3(2H)-pyridazinone]
ED (40 mm Hg) [1]: 3.15 µmol/kg
ED (50% increase) [2, 12]: 1.43 µmol/kg

ED50 (β1 -receptors [3]): 7.84 µmol/kg
Compound: Cc1cc(CCOCC2CC2)ccc1OCC(O)CNCCC(=O)Nc1ccc(C2=NNC(=O)CC2C)cc1 (centres unmarked) [Example 3, 6-[4-[3-[2-Hydroxy-3-[2-methyl-4-(2-(cyclopropylmethoxy)ethyl)phenoxy]propylamino]propionamido]phenyl]-5-methyl-4,5-dihydro-3(2H)-pyridazinone]
ED (40 mm Hg) [1]: 2.95 µmol/kg
ED (50% increase) [2, 12]: 1.95 µmol/kg

Compound: CC1CC(=O)NN=C1c1ccc(NC(=O)CCNCC(O)COc2ccc(CCOCC3CC3)cc2)cc1 (centres unmarked) [Example 4, 6-[4-[3-[2-Hydroxy-3-[4-(2-(cyclopropylmethoxy)ethyl)phenoxy]propylamino]propionamido]phenyl]-5-methyl-4,5-dihydro-3(2H)-pyridazinone]
duration of prolonged, significant reductions in blood pressure (up to and including, post dose) ([8]; intravenous, 3 to 13 μmol Kg^-1): 5 h
fall in blood pressure ([8]; intravenous, three dose levels from 3 to 13 μmol Kg^-1): significant fails in blood pressure
duration of prolonged, significant reductions in blood pressure (up to and including, post dose) ([8]; oral, 25 to 102 μmol Kg^-1): 5 h
hypotensive effect ([8]; oral, three doses from 25 to 102 μmol Kg^-1): significant hypotensive effect
dose required to lower blood pressure by 40 mm Hg ([1]; as methanesulphonate): 2.8 µmol/kg
inhibition of the reduction in tracheal tone by propanolol [9]: not inhibited by propanolol
reduction in spontaneous tone of trachea [9]: 50%
period of blood pressure reduction with minimal heart rate change [4]: at least 2 hours
reductions in blood pressure [4]: reductions in blood pressure
changes in heart rate [4]: minimal changes in heart rate
ED (50% increase) [2, 11]: 1.7 µmol/kg
duration of vasodilatation ([2]; autoperfused anaesthetised rat hindquarters): prolonged duration of vasodilatation
prolonged hypotension and β1-adrenoceptor antagonism over the same dose range (β1 -adrenoceptor): cause prolonged hypotension and β1 -adrenoceptor antagonism over the same dose range
ID50 (inhibition of isoprenaline-induced tachycardia by 50%) (β1 -receptors [3]; as methanesulphonate): 1.4 µmol/kg
toxic effects [10]: no toxic effects were observed

duration of inhibition of isoprenaline-induced tachycardia (β1 -receptors [6]): short duration of inhibition
Compound: CC(C)(C)NCC(O)COc1ccccc1-c1ccc(NN)nn1 (centres unmarked) [Prizidilol, reference compound]
ED (40 mm Hg) [1]: 14 µmol/kg
ED (50% increase) [2, 11]: 10 µmol/kg
